According to patent EP0102564A2, “Method for the removal of toxins bound to protein or lipid from blood or blood fractions, and use of certain compounds as liberating agents” (FRAUNHOFER-GESELLSCHAFT ZUR FÖRDERUNG DER ANGEWANDTEN …, priority 1982, dated 1984):
Read-outs that look alike come from different tables or passages of the source.

What was measured:
Plasmaproteine = settings: cited from earlier work
Plasma = experiment: Removal of protein-bound ET from plasma; settings: for Restkonzentration an ET nach Adsorption an AK mit vorheriger Freisetzung durch Entkoppler: 30 mg AK, 45 min, relative to initial value
BSA [1] = molecular target: T1, BSA (Bos taurus, UniProt P02769); experiment: Adsorption of ET on activated carbon after prior release by uncoupler, BSA, batch; design: species or system Rind; settings: for adsorbierte Menge nach 45 Minuten: uncoupler pre-adsorbed on SCII, then 30 mg AK
Method: In dieser Versuchsreihe wurde das Zusammenwirken aller bisher betrachteten Parameter im Batch erprobt. 1 ml ET-Lösung (2170/umol ET/1 PBS) wurden für ca. 18 Stunden bei 37°C mit 40 mg BSA inkubiert. Nach dieser Zeit beträgt die ET-Konzentration lediglich 5% des Ausgangswerts (d.h. 95% des ET sind an das BSA gebunden). Nun erfolgte die Zugabe von 150/ul Entkoppler (K-Cystein = 115, Fig. 7, Kurve a; K-Glutathion = 30, Fig. 8, Kurve a). Die Abkopplung des ET wird verfolgt, bis keine Zunahme der ET-Konzentration mehr eintritt. Bei der Verwendung von Cystein erfolgt die Freisetzung schneller als bei Glutathion.
Nun wurden 30 mg SCII (vorher in PBS entgast) zu den Proben hinzugegeben. Die ET-Konzentration nimmt nun rasch ab. Die gesamte Restmenge beträgt nach 45 Minuten nur noch ca. 5% des Anfangswerts. Es wurden also 95% der vorgegebenen Thiolmenge von 30 mg AK entfernt.
In einer weiteren Versuchsreihe wurde untersucht, ob der Entkoppler auch wirksam ist, wenn er zuvor an Aktivkohle adsorbiert wurde. Dazu wurden 30 mg SCII mit den Entkoppler-Lösungen 2 Stunden inkubiert. Diese vorbeladene Kohle wurde dann statt der Entkoppler-Lösung eingesetzt. Fig. 7 und 8 (jeweils Kurve b) zeigen den Abkopplungsvorgang. Die freie ET-Konzentration steigt in beiden Fällen nicht auf den Anfangswert an. Dem Freisetzungsprozeß ist eine Adsorption überlagert. Sie liegt bei AK-Glutathion um ca. 50% tiefer als bei AK-Cystein. Nach Zugabe von 30 mg AK (in PBS entgast) fällt die ET-Konzentration schnell ab. Nach 45 Minuten beträgt die adsorbierte Menge bei Verwendung von Cystein ca. 97%, bei Verwendung von Glutathion ca. 95%.

[2] = molecular target: T2, Ethanthiol-Protein-Komplex (BSA) (Bos taurus, UniProt P02769); experiment: Variation of the uncoupler amount, release of ET from BSA; design: species or system Rind; settings: compared with reduced Glutathion
T2 construct: Rinderserumalbumin (BSA, bovine serum albumin); purchased Behring, Marburg
Method: Um die Wirksamkeit der beiden Entkoppler vergleichen zu können, wurden Proben mit 40 mg BSA auf 1 ml ET-Lösung (2170/umol ET/1 PBS) über Nacht bei 37 °C inkubiert. Nach dieser Zeit betrug die freie Thiolkonzentration ca. 2 bis 5% der Ausgangskonzentration. Nach der Zugabe unterschiedlicher Entkoppler-Mengen wurde die Freisetzung des ET gaschromatographisch verfolgt. Fig. 3 und 4 zeigen den Verlauf der ET-Konzentration als Funktion der Zeit. Die Zugabe des Entkopplers erfolgte zum Zeitpunkt t = o. Der Parameter K entspricht dem molaren Verhältnis zwischen eingesetzter Entkoppler-Menge und eingesetzter ET-Thiolmenge.

BSA [3] = molecular target: T1, BSA; experiment: Adsorption of protein-bound ET on activated carbon without prior release, BSA; design: species or system Rind; settings: K = 110, added after removal of carbon; BSA and HSA samples
Method: (§1) Um die Leistungsfähigkeit der ET-Entfernung nach vorhergehender Abkopplung von Protein beurteilen zu können, wurde die Adsorptionskinetik ohneverwendung eines Entkopplers untersucht. Dazu wurden im Batchversuch Proben, die 40 mg BSA oder HSA auf 1 ml ET-Lösung (2170/umol ET/ 1 PBS) enthielten, über Nacht auf einem Rollermixer inkubiert. Nach Einstellen des Gleichgewichts wurde am nächsten Tag die Konzentration an ET bestimmt. Sie lag für BSA bei ca. 11% und für HSA bei ca. 21% der Ausgangskonzentration. Zu beiden Proben wurden 30 mg SCII (vorher in PBS entgast) zugegeben und die freie ET-Konzentration fortlaufend gemessen. Nach 45 Minuten wurden die AK entfernt und Cystein zugegeben. […] Fig. 6 zeigt den Verlauf der ET-Konzentration. Die Probe, die HSA enthielt, wies eine Abnahme der ET-Menge durch Adsorption von 78% auf, die Probe mit BSA lediglich von ca. 68%. Dieses Ergebnis deckt sich mit der Beobachtung,daß ET stärker an BSA gebunden ist als an HSA. Damit konnte gezeigt werden, daß proteingebundenes ET durch Aktivkohle entfernt werden kann. Die Restkonzentration liegt jedoch relativ hoch, und die Kinetik ist langsam.

BSA [4] = molecular target: T1, BSA; experiment: in vitro; settings: bovine
[5] = Removal of protein-bound ET from plasma
BSA [6] = molecular target: T1, BSA; experiment: Binding of Ethanthiol to BSA, gas chromatography (headspace)
HSA [7] = molecular target: T3, HSA (Homo sapiens, UniProt P02768); experiment: Binding of Ethanthiol to HSA, gas chromatography (headspace); assay type: in vitro ADME; settings: 40 mg HSA per 1 ml ET solution, overnight, equilibrium
T3 construct: Humanserumalbumin (HSA); purchased Behring, Marburg or Sigma, St. Louis (fatty-acid-free)
Method: as §1

Fibrinogen = molecular target: T4, Fibrinogen (Bos taurus, UniProt P02672+P02676+P12799)
T4 sequence (P02672 20-615): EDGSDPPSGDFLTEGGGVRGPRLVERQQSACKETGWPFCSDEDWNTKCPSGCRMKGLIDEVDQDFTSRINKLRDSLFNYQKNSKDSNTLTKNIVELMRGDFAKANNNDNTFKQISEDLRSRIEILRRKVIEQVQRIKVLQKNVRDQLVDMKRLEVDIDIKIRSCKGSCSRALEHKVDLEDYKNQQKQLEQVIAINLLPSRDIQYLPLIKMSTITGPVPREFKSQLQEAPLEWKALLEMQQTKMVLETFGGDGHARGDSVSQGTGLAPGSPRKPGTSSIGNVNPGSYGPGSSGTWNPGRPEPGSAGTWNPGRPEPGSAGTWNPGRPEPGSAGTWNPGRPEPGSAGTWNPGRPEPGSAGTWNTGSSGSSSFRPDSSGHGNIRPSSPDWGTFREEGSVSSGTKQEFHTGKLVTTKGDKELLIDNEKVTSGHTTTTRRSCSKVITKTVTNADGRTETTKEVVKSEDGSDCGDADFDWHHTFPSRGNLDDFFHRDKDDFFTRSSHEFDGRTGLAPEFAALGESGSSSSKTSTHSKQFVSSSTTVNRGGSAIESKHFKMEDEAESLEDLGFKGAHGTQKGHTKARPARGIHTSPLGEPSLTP
T4 sequence (P02676 1-468): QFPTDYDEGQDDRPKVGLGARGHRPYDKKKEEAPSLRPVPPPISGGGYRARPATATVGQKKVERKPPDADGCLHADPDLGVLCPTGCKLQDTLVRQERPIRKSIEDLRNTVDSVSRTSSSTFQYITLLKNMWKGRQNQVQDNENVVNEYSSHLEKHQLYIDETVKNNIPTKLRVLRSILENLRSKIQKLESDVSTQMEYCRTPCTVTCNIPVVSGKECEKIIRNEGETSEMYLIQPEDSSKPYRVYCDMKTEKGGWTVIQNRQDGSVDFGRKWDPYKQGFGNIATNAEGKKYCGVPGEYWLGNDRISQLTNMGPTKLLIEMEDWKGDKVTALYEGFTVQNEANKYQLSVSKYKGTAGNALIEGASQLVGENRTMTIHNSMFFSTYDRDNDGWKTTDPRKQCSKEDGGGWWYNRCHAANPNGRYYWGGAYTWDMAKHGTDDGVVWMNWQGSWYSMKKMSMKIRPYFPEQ
T4 sequence (P12799 25-444): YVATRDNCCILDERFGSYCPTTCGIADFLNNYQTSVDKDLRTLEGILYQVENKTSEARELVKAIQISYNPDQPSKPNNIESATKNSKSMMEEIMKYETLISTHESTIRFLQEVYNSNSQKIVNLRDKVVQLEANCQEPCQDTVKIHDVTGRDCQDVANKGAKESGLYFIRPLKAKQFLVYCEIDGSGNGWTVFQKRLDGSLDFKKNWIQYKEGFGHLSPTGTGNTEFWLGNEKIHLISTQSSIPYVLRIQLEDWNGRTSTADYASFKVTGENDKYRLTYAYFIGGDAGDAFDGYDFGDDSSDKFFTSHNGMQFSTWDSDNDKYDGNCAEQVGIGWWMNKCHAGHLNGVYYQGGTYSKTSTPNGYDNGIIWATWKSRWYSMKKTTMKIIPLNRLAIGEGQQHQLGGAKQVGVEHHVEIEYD

[8] = system: Methotrexat, Proteinbindung; experiment: Uncoupling of toxin from protein binding, molar ratio K (Table III), toxin Methotrexat; settings: molar ratio of uncoupler to toxin
Text: Werte können Tabelle III entnommen werden.

[9] = system: Ethanthiol, Proteinbindung; settings: molar ratio of uncoupler to toxin; toxin Ethanthiol (Methanthiol)
HSA [10] = molecular target: T3, HSA; experiment: Binding study of toxins to protein, ultrafiltration and photometry, HSA; assay type: in vitro ADME; settings: HSA 80 mg in 2 ml PBS, depends on initial concentration, read-out: MTX in ungebundener Form
Method: Es wurden beide Verfahren der Druckerzeugung (Druckluft, Zentrifugation) erprobt. Dazu wurden die Proben (2 ml) in die Trennzelle gefüllt und ein Teil (150fu1) abgetrennt. Durch diesen kleinen Probenverlust wird das Gleichgewicht der Probe nur schwach gestört. Die Konzentrationen der einzelnen Substanzen (Toxin und Protein) wurden photometrisch mit einem Mehrkomponentenanalyseprogramm ermittelt. Beide Meßverfahren führten zu den gleichen Ergebnissen. Bevorzugt ist das Verfahren der Ultrafiltration mit Hilfe der Zentrifugation. Dieses Verfahren erlaubt einen höheren Probendurchsatz als das Verfahren mit Druckluft. Die verwendeten Proteinkonzentrationen waren physiologisch (Albumin 40 g/l; Fibrinogen 4 g/l). Aus den bekannten Anfangskonzentrationen und der gemessenen Konzentration an freiem ungebundenen Toxin lassen sich die Bindungsparameter sowie die Adsorptionsisothermen punktweise ermitteln.
Das freie ungebundene Toxin wurde durch Ultrafiltration gewonnen und die Konzentration photometrisch mit Hilfe der Mehrkomponentenanalyse bestimmt. Die Ausgangsproben enthielten 80 mg Protein und wurden mit PBS auf 2 ml aufgefüllt (physiologische Konzentration). Die Toxinmenge wurde zwischen 100 und 1GOO/ug variiert. Es zeigten sich deutliche Unterschiede zwischen BSA und HSA.

BSA [11] = molecular target: T1, BSA; experiment: Binding study of toxins to protein, ultrafiltration and photometry, BSA; settings: bovine, bsa in pbs
BSA [12] = molecular target: T1, BSA; experiment: Competitive adsorption of fatty acids and Ethanthiol on BSA; design: species or system Rind; settings: rising oleic acid concentration
Text: Aus der Literatur ist bekannt, daß Fettsäuren eine starke Proteinbindung aufweisen. Proben, die Thiol und ölsäure (einfach ungesättigte Fettsäure) enthielten, zeigten abnehmende Thioladsorption bei steigender ölsäurekonzentration.

T1 sequence (P02769 25-607): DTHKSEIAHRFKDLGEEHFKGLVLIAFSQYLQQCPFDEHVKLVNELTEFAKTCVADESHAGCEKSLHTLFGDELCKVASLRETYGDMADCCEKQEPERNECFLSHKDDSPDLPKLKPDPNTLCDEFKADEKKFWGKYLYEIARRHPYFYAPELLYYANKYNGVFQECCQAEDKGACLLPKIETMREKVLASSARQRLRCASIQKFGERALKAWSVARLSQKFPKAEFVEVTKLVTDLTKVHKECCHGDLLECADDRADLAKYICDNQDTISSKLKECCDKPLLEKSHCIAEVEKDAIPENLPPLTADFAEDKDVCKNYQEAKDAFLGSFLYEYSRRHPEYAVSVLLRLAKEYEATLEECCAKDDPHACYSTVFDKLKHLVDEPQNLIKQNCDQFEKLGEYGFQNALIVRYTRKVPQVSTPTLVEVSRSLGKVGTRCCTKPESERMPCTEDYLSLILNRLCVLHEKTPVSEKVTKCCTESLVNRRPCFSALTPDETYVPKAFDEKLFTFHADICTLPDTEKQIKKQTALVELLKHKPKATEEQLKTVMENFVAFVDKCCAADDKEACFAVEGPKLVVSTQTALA
T3 sequence (P02768 25-609 limits assumed): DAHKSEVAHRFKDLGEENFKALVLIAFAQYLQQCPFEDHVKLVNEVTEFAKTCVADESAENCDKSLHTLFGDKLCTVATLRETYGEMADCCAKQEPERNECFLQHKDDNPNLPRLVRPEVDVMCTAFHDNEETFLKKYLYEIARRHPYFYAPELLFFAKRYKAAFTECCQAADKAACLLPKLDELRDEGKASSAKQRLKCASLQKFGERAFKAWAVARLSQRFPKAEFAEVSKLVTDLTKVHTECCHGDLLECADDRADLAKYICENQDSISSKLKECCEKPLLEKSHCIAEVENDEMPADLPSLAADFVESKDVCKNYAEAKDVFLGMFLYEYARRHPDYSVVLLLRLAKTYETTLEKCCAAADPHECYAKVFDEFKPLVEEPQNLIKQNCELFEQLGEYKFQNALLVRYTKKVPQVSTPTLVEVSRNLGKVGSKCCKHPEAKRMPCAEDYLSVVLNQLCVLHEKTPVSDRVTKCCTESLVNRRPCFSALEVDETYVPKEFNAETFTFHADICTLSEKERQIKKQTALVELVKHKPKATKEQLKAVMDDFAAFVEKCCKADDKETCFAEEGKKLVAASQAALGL
T2 sequence (P02769 25-607): as the sequence (P02769 25-607) above

CCN(CC)CCCC(C)Nc1ccnc2cc(Cl)ccc12 (racemic) [Chloroquin]
Bindung von Pharmaka an Plasmaproteine (Plasmaproteine; plasma): 55%

CN(C)CCCN1c2ccccc2Sc2ccc(Cl)cc21 [Chlorpromazin]
Bindung von Pharmaka an Plasmaproteine (Plasmaproteine; plasma): 90%

O=c1ccc2ccccc2o1 [Coumarin]
Bindung von Pharmaka an Plasmaproteine (Plasmaproteine; plasma): 99%

N[C@@H](CS)C(=O)O [Cystein]
Freisetzung, Geschwindigkeit im Vergleich zu Glutathion (Plasma): schnellere Freisetzung | Restkonzentration an ET nach Adsorption an AK mit vorheriger Freisetzung durch Entkoppler (Plasma; uncoupler added directly): 15% | Restkonzentration an ET nach Adsorption an AK mit vorheriger Freisetzung durch Entkoppler (Plasma; uncoupler pre-adsorbed on AK): 4% | Freisetzung, Geschwindigkeit im Vergleich zu Glutathion (BSA [1]; K-Cystein = 115, K-Glutathion = 30): schneller | adsorbierte Menge nach 45 Minuten (BSA [1]): ca. 97% | K-Werte für den gleichen Freisetzungsgrad an ET [2]: höher | Freisetzung des noch vorhandenen Ethanthiols (BSA [3]): totale Freisetzung

CC1=NS(=O)(=O)c2cc(Cl)ccc2N1 [Diazoxid]
Bindung von Pharmaka an Plasmaproteine (Plasmaproteine; plasma): 90%

CCS [Ethanthiol]
fraction unbound at 18 h, 2170 µM (BSA [4]; ET-Konzentration, % des Ausgangswerts): 0.05 | fraction unbound (BSA [4]; Ethanthiol an BSA gebunden): ~0.05 | fraction unbound (BSA [4]; Konzentration an ET, % der Ausgangskonzentration): ~0.11 | fraction unbound (BSA [4]; freie Thiolkonzentration, % der Ausgangskonzentration): 0.02 to 0.05 | fraction unbound at 20 h, 2170 µM [5]: 0.33 | Adsorption des Ethanthiols an BSA bis zur Nachweisgrenze dauert (BSA [6]): ≤ 6 Stunden | Zeit, nach der 50% der ET-Menge gebunden sind (BSA [6]; 40 mg BSA, 1 ml ET solution 2170 µmol/l, 37°C): ca. 3 Stunden | Konzentration an ET, % der Ausgangskonzentration (HSA [7]): ca. 21% | von Fibrinogen gebundene molare Menge von Toxin im Vergleich zu Albumin (Fibrinogen): annähernd die gleiche molare Menge

Nc1nc2ncc(CNc3ccc(C(=O)N[C@@H](CCC(=O)O)C(=O)O)cc3)nc2c(=O)[nH]1 [Folsäure]
K-Werte [8]: ca. 5

N[C@@H](CCC(=O)N[C@@H](CS)C(=O)NCC(=O)O)C(=O)O [Glutathion, red., Glutathion, reduziert]
Entkopplung (Plasma; ET rises again after final addition of Cystein): keine 100%ige Entkopplung | Restkonzentration an ET nach Adsorption an AK mit vorheriger Freisetzung durch Entkoppler (Plasma; uncoupler added directly): 15% | Restkonzentration an ET nach Adsorption an AK mit vorheriger Freisetzung durch Entkoppler (Plasma; uncoupler pre-adsorbed on AK): 16% | adsorbierte Menge nach 45 Minuten (BSA [1]): ca. 95% | K-Werte [9]: ca. 100

CN(C)CCCN1c2ccccc2CCc2ccccc21 [Imipramin]
Bindung von Pharmaka an Plasmaproteine (Plasmaproteine; plasma): 90%

NNC(=O)c1ccncc1 [Isoniazid]
Bindung von Pharmaka an Plasmaproteine (Plasmaproteine): 100%

Nc1nc2c(c(=O)[nH]1)N(C=O)C(CNc1ccc(C(=O)N[C@@H](CCC(=O)O)C(=O)O)cc1)CN2 (some centres unmarked) [Leucoverin]
K-Werte [8]: ca. 5

CN(Cc1cnc2nc(N)nc(N)c2n1)c1ccc(C(=O)N[C@@H](CCC(=O)O)C(=O)O)cc1 [Methotrexat]
fraction unbound (HSA [10]): 0.3 to 0.4 | Bindung von Pharmaka an Plasmaproteine (Plasmaproteine; plasma): 80% | fraction unbound (BSA [11]): 0.1 to 0.25

O=C(O)c1ccccc1O [Salicylsäure]
Bindung von Pharmaka an Plasmaproteine (Plasmaproteine; plasma): 80% | K-Werte [8]: ca. 5

O=C1OC(c2ccc(O)c(S(=O)(=O)O)c2)(c2ccc(O)c(S(=O)(=O)O)c2)c2c(Br)c(Br)c(Br)c(Br)c21 [Sulfobromphthalein]
K-Werte [8]: ca. 5

CCCCCCCC/C=C\CCCCCCCC(=O)O [ölsäure]
Bindung von Ethanthiol an BSA durch Zugabe von ölsäure (BSA [12]): behindert oder gar blockiert

Phenylbutazon
Bindung von Pharmaka an Plasmaproteine (Plasmaproteine; plasma): 98% | K-Werte [8]: ca. 2
